The target of one data set is T1, canine COX-2 (Canis lupus familiaris, UniProt Q8SPQ9).
T1 construct: host or cells: DH82 canine histocytoma cells, LPS-treated overnight
T1 sequence (Q8SPQ9 18-604): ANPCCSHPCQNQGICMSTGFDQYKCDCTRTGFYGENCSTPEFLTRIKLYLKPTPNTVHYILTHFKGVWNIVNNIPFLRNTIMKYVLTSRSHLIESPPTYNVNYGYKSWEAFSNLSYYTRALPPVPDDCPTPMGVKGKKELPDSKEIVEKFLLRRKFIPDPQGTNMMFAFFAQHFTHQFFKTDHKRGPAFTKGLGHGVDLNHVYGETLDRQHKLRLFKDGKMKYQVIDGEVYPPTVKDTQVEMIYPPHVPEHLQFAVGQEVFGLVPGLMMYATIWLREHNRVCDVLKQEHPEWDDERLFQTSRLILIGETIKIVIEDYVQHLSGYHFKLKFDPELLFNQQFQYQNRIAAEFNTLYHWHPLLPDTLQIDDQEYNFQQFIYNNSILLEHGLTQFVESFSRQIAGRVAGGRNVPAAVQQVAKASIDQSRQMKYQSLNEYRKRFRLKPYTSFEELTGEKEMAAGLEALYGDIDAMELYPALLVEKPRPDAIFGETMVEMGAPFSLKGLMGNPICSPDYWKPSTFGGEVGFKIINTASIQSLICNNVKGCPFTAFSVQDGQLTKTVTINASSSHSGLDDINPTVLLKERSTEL
The experiment in a line: Canine COX-2 activity: LPS-treated DH82 canine histocytoma cells, PGE2 by EIA. Format: cell-based, dog. The method, then: Protocol for Evaluation of Canine COX-2 Activity
A canine histocytoma (macrophage-like) cell line from the American Type Culture Collection designated as DH82, was used in setting up the protocol for evaluating the COX-2 inhibition activity of various test drug compounds. There was added to flasks of these cells 10 μg/mL of LPS, after which the flask cultures were incubated overnight. The same test drug compound dilutions as described above for the COX-1 protocol were used for the COX-2 assay and were prepared the day before the assay was carried out. […] The test sample suspensions were incubated for 1 hr and then centrifuged at 1000 rpm for 10 min at 4° C., after which 50 μl aliquots of each test drug sample were delivered to EIA plates. The EIA was performed for prostaglandin E2 (PGE2), and the pg/mL concentration of PGE2 was calculated from the standard line included on each plate. […] The results were averaged, and a single COX-1:COX-2 ratio was calculated.

The next data set concerns the target COX-2 (Canis lupus familiaris, UniProt Q8SPQ9). The experiment in a line: in vivo. To be noted: for PGE2 Pg/mL/Well: group average; for inhibition at 2 mg/kg / inhibition at 10 mg/kg: dog, po. As to the method: A zero-hour blood sample was collected from all dogs in the study prior to dosing, followed by 1-, 3-, and 6-hour post-dose blood sample collections. […] Test tubes used as controls contained vehicle and were unstimulated by the addition of any agent. A 500 μL sample of blood was added to each of the above-described test tubes, after which they were incubated at 37° C. for one hr in the case of the calcium ionophore-containing test tubes, and overnight in the case of the LPS-containing test tubes. After incubation, 10 μL of EDTA was added to give a final concentration of 0.3%, in order to prevent coagulation of the plasma which sometimes occurs after thawing frozen plasma samples. The incubated samples were centrifuged at 4° C. and the resulting plasma sample of ˜200 μL was collected and stored at −20° C. in polypropylene 96-well plates. In order to determine endpoints for this study, enzyme immunoassay (EIA) kits available from Cayman were used to measure production of TXB2 and PGE2, utilizing the principle of competitive binding of tracer to antibody and endpoint determination by colorimetry.
The data is expressed as treatment group averages in pg/mL of TXB2 and PGE2 produced per sample. Plasma dilution was not factored in said data values.

Another data set deals with T2, COX-1 (Canis lupus familiaris, UniProt Q8HZR1).
T2 construct: using an ex vivo procedure on canine whole blood; from tissue; host or cells: whole blood of dosed dogs, stimulated with calcium ionophore A23187
T2 sequence (Q8HZR1 28-603): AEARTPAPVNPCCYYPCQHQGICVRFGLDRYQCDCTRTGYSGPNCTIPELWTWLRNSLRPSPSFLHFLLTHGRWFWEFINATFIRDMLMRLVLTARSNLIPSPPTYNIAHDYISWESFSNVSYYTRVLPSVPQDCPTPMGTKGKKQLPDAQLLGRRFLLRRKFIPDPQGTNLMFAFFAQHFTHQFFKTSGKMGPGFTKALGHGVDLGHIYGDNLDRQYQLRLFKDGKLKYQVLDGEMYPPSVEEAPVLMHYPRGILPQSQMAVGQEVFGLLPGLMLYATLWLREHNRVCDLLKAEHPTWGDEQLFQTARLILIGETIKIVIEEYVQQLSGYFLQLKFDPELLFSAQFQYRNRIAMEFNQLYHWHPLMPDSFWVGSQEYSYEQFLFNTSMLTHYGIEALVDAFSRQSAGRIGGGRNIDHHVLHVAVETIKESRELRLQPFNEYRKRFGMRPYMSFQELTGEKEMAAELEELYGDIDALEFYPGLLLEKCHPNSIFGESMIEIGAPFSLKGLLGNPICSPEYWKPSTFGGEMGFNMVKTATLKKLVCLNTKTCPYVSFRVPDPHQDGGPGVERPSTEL
The experiment in a line: Ex vivo COX-1 whole blood assay (TXB2) run in the carrageenan study, Example 4. Also on record: species or system dog. To be noted: 2 mg/kg PO, any of the timepoints tested. The source says: The experiment was run in two replicates.
Table 5 illustrates that carrageenan induced almost a 4-fold increase in PGE2 synthesis in the whiffle ball over background levels.

For data set [1] the following is noted: dog, in vivo, po. The method, then:
Following oral dosing to dogs of an immediate release carprofen formulation at a dose of 2 mg/lb, plasma carprofen concentrations were above 10 μg/mL for approximately 10.5 hr. In accordance with the present invention, 2 mg/lb/day is within the range of preferred doses of carprofen.
Immediate release carprofen dosage forms containing doses of 1.8, 1.6, and 1.4 mg/lb maintain a plasma carprofen concentration above 10 μg/mL for 9.5 hrs, 8.5 hrs, and 7.5 hrs, respectively.

Data set [2] deals with COX-2 (derived from lipopolysaccharide stimulated J774.2 macrophages) (Mus musculus, UniProt Q05769). The note with it: cited from earlier work.

These results are taken from patent publication US20030212123A1, “COX-2 selective carprofen for treating pain and inflammation in dogs” (Pfizer Inc., priority 1997, published 2003).

SMILES strings stand for the structures. Where two headings read alike, the source gives them in different places.

Sequence of COX-2 (derived from lipopolysaccharide stimulated J774.2 macrophages) (Q05769 18-604): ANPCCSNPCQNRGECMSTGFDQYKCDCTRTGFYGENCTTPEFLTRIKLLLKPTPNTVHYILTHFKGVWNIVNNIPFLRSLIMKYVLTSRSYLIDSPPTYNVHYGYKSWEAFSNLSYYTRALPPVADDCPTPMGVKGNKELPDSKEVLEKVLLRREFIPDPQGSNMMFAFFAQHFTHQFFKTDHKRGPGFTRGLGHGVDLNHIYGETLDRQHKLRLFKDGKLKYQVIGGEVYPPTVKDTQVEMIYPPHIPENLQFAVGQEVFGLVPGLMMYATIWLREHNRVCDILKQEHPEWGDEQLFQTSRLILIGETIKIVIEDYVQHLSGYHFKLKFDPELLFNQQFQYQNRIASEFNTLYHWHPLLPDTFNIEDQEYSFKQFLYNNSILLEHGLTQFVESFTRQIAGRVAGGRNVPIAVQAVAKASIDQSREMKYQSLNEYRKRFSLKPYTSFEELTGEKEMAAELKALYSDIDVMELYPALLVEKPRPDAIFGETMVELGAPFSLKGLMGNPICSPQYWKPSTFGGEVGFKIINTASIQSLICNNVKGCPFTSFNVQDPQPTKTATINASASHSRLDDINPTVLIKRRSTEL

In the case of `CC(C(=O)O)c1ccc2c(c1)[nH]c1ccc(Cl)cc12` (racemic) [Carprofen (rac.), 6-chloro-α-methyl-9H-carbazole-2-acetic acid], the IC50 against canine COX-2 is 0.102 µM; in data set [2] (read-out: IC50 (μM) COX-2, as shown by Battistini et al.), 11 µM; in data set [2] (read-out: IC50 (μg/mL) COX-2, n=9, LPS stimulated J774.2 macrophages) it was 11 µM. In addition, the “PGE2 Pg/mL/Well” value at COX-2 (2 mg/kg PO capsule, 0-hour (pre-dose)) is reported as 511 Pg/mL/Well; at COX-2 (2 mg/kg PO capsule, 1-hour post-dose) it was 33 Pg/mL/Well; on COX-2 (2 mg/kg PO capsule, 3-hour post-dose), 98 Pg/mL/Well; on COX-2 (2 mg/kg PO capsule, 6-hour post-dose), 190 Pg/mL/Well; on COX-2 (10 mg/kg PO capsule, 0-hour (pre-dose)), 336 Pg/mL/Well; at COX-2 (10 mg/kg PO capsule, 1-hour post-dose), 19 Pg/mL/Well. Moreover, the “PGE2 Pg/mL/Well” value at COX-2 (10 mg/kg PO capsule, 3-hour post-dose) is on record as 12 Pg/mL/Well; at COX-2 (10 mg/kg PO capsule, 6-hour post-dose), 12 Pg/mL/Well. In addition, the inhibition at 2 mg/kg at COX-2 (read-out: COX-2 activity Percent Inhibition, 2 mg/kg PO capsule, 1-hour, based on zero hour value) was determined as 94%; on COX-2 (read-out: COX-2 activity Percent Inhibition, 2 mg/kg PO capsule, 3-hour, based on zero hour value) it was 81%; at COX-2 (read-out: COX-2 activity Percent Inhibition, 2 mg/kg PO capsule, 6-hour, based on zero hour value) it was 63%. Further, the inhibition at 10 mg/kg on COX-2 (read-out: COX-2 activity Percent Inhibition, 10 mg/kg PO capsule, 1-hour, based on zero hour value) stood at 94%; at COX-2 (read-out: COX-2 activity Percent Inhibition, 10 mg/kg PO capsule, 3-hour, based on zero hour value) it was 96%; on COX-2 (read-out: COX-2 activity Percent Inhibition, 10 mg/kg PO capsule, 6-hour, based on zero hour value), 96%. The “ex vivo COX-1 inhibition of TXB2” value on COX-1 is “no inhibition of TXB2”. Moreover, the “time plasma carprofen concentrations were above 10 μg/mL” value in data set [1] was “approximately 10.5 hr”.
